Paper PMC8563940 (Scientific Reports, 2021)

What was measured:
Assay type in all cases: biochemical
[1] = molecular target: methamidophos-inhibited hAChE (Homo sapiens, UniProt P22303)
[2] = molecular target: fenamiphos-inhibited hAChE (Homo sapiens, UniProt P22303)
human AChE = human AChE (Homo sapiens, UniProt P22303)
[3] = molecular target: T1, human acetylcholinesterase (hAChE) (Homo sapiens, UniProt P22303); test: Progressive inhibition of hAChE by organophosphorus pesticides (Ellman method); conditions: 25 °C, ± SEM; for kinact/KI: read-out: ki, overall second-order rate constant of inhibition (converted)
T1 construct: made in house
T1 sequence (P22303 32-614): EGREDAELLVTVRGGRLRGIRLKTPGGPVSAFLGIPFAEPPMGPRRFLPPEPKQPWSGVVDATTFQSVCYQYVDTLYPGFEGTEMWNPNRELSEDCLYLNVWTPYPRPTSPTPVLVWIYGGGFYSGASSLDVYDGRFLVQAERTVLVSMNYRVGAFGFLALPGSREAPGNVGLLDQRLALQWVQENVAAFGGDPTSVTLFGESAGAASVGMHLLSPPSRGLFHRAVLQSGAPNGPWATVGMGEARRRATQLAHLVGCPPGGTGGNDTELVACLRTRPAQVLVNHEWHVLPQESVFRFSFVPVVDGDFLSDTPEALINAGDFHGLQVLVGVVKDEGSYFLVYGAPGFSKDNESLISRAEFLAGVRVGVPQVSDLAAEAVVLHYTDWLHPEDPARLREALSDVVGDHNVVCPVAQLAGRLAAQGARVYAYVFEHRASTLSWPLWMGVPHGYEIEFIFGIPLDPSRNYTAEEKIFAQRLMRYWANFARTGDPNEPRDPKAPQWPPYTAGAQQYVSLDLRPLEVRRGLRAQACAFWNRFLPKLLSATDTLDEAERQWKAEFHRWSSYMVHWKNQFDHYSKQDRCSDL

[4] = molecular target: T2, human butyrylcholinesterase (hBChE) (Homo sapiens, UniProt P06276); test: Progressive inhibition of hBChE by organophosphorus pesticides (Ellman method); conditions: for kinact/KI: read-out: ki, overall second-order rate constant of inhibition (converted)
T2 construct: hBChE derived from purified human plasma; from tissue; host or cells: human plasma
T2 sequence (P06276 29-602): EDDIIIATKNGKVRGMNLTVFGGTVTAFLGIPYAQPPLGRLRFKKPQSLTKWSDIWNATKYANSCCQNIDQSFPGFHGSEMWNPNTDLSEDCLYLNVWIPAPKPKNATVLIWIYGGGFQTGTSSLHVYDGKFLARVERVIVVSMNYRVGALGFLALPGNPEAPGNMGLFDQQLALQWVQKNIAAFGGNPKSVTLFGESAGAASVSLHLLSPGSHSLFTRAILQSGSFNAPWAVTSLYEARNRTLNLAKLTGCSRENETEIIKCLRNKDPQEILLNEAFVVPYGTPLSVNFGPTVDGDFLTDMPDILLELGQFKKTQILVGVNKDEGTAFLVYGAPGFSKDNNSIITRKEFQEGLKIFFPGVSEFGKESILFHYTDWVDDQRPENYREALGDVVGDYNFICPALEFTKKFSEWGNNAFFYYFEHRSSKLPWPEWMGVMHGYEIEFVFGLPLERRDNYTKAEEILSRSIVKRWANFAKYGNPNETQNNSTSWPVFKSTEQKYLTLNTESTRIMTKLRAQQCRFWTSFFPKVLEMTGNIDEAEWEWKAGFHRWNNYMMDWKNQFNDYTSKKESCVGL

fenamiphos-inhibited hAChE, sequence (P22303 32-614): as the sequence (P22303 32-614) above
human AChE, sequence (P22303 32-614): as above
methamidophos-inhibited hAChE, sequence (P22303 32-614): as above

ON=Cc1cc[n+](CCC[n+]2ccc(C=NO)cc2)cc1 [TMB-4]
Reactmax (screening) [1]: 83%
Reactmax, maximal percentage of reactivation [1]: 80%
k2, maximal first-order reactivation rate constant [1]: 16.5 ± 6.6 min⁻¹
kobs, observed reactivation rate (screening) [1]: 4.2338 min -1
kr, overall second-order reactivation rate constant [1]: 116,600 ± 12,380 min^−1 M^−1
t, time to achieve maximum of reactivation (screening) [1]: 0.16 h
Reactmax (screening) [2]: 49%
Reactmax, maximal percentage of reactivation [2]: 65%
k2, maximal first-order reactivation rate constant [2]: 0.082 ± 0.010 min⁻¹
kobs, observed reactivation rate (screening) [2]: 0.0177 min -1
kr, overall second-order reactivation rate constant [2]: 2.237 ± 0.293 M⁻¹ s⁻¹
t, time to achieve maximum of reactivation (screening) [2]: 1 h
Inhibition of AChE with oxime (human AChE): 8%

ON=Cc1cc[n+](CCn2cc(C[n+]3ccccc3C=NO)nn2)cc1 [Oxime 14A]
Reactmax (screening) [1]: 68%
Reactmax, maximal percentage of reactivation [1]: 85%
k2, maximal first-order reactivation rate constant [1]: 22.2 ± 3.8 min⁻¹
kobs, observed reactivation rate (screening) [1]: 6.7944 min -1
kr, overall second-order reactivation rate constant [1]: 108,300 ± 17,090 min^−1 M^−1
t, time to achieve maximum of reactivation (screening) [1]: 0.08 h
Reactmax (screening) [2]: 42%
Reactmax, maximal percentage of reactivation [2]: 45%
k2, maximal first-order reactivation rate constant [2]: 0.069 ± 0.034 min⁻¹
kobs, observed reactivation rate (screening) [2]: 0.0062 min -1
kr, overall second-order reactivation rate constant [2]: 1.43 ± 0.413 M⁻¹ s⁻¹
t, time to achieve maximum of reactivation (screening) [2]: 3 h
Inhibition of AChE with oxime (human AChE): 10%

C[n+]1ccccc1C=NO [Oxime 2-PAM]
Reactmax (screening) [1]: 86%
Reactmax, maximal percentage of reactivation [1]: 80%
k2, maximal first-order reactivation rate constant [1]: 2.7 ± 0.2 min⁻¹
kobs, observed reactivation rate (screening) [1]: 1.1558 min -1
kr, overall second-order reactivation rate constant [1]: 42,190 ± 2,547 min^−1 M^−1
t, time to achieve maximum of reactivation (screening) [1]: 0.36 h
Reactmax (screening) [2]: 46%
Reactmax, maximal percentage of reactivation [2]: 70%
k2, maximal first-order reactivation rate constant [2]: 0.003 ± 0.0002 min⁻¹
kobs, observed reactivation rate (screening) [2]: 0.0011 min -1
kr, overall second-order reactivation rate constant [2]: 0.125 ± 0.025 M⁻¹ s⁻¹
t, time to achieve maximum of reactivation (screening) [2]: 20 h
Inhibition of AChE with oxime (human AChE): 11%

CCOP(=S)(OCC)SCn1c(=O)oc2cc(Cl)ccc21 [Phosalone, phosalone]
kinact/KI [3]: 35.5 M⁻¹ s⁻¹
Ki [4]: 97.9 ± 15.3 µM
kmax, first-order inhibition constant ([4]; hBChE, 25 °C, ± SEM): 0.23 ± 0.02 min⁻¹
kinact/KI ([4]; hBChE, 25 °C, ± SEM): 38.9 M⁻¹ s⁻¹

COP(N)(=O)SC (stereo not shown) [Methamidophos, methamidophos]
kinact/KI [3]: 46 M⁻¹ s⁻¹
ki lower than that of fenamiphos ([4]; hBChE): 90 fold
kinact/KI ([4]; hBChE, 25 °C, ± SEM): 6.43 M⁻¹ s⁻¹

CCCSP(=O)(OCC)SCCC [Ethoprophos, ethoprophos]
Ki [4]: 36.4 ± 6.68 µM
kmax, first-order inhibition constant ([4]; hBChE, 25 °C, ± SEM): 0.58 ± 0.05 min⁻¹

CCOP(=O)(NC(C)C)Oc1ccc(SC)c(C)c1 (stereo not shown) [Fenamiphos, fenamiphos]
ki, overall second-order rate constant of inhibition [3]: 3,982 ± 264 min^-1 M^-1
kmax, first-order inhibition constant [3]: 0.21 ± 0.01 min⁻¹
ki, overall second-order rate constant of inhibition ([4]; hBChE, 25 °C, ± SEM): 35,890 ± 8,484 min^-1 M^-1
kmax, first-order inhibition constant ([4]; hBChE, 25 °C, ± SEM): 0.16 ± 0.01 min⁻¹
